Experimental data as given in article PMC6651024, “LIR Motif-Containing Hyperdisulfide β-Ginkgotide is Cytoprotective, Adaptogenic, and Scaffold-Ready” (Molecules, 2019).
Where a SMILES comes first, the peptide text is derived from it.

Legend:
[1] = Enzymatic (proteolytic) stability against trypsin; format: in vitro ADME; conditions: isolated enzyme trypsin; 800 U/mL trypsin, 0.1 M ammonium bicarbonate buffer pH 7.8, 37 °C, 6 h; 28 µg peptide in 100 µL; MALDI-TOF MS and C18 RP-HPLC; read-out: Peptide remaining intact after trypsin treatment
Protocol: To assess the proteolytic stability of β-gB1, it was treated with trypsin or pepsin for 6 h. […] Similarly, the S-alkylated β-gB1 was degraded completely by pepsin within 30 min. […] This is in agreement with other plant CRPs that contain a compact structure, whose proteolytic stability was examined up to six hours treatment.
The folded β-gB1 (28 µg) was added to 100 μL of a 0.1 M ammonium bicarbonate buffer (pH 7.8) containing 800 U/mL of trypsin or 4 mg/mL of pepsin and incubated at 37 °C for 6 h. At each time-point (0, 1, 2, 4, and 6 h), 20 µL of the treated sample was aliquoted and quenched by adding 5 µL of 1 M hydrochloric acid or 0.8 μL of 1 M sodium hydroxide. The reduced β-gB1 was alkylated with iodoacetamide (S-alkylated β-gB1) and used as a control in this study. The reaction mixture was analyzed by MALDI-TOF MS and C18-reversed-phase HPLC to determine its stability.

Candida tropicalis = conditions: concentrations up to 100 µM; cited from earlier work
SH-SY5Y cells = experiment: Hypoxia-reoxygenation injury, MTT assay, SH-SY5Y; format: cell-based, human; conditions: 1 µM peptide, 24 h hypoxia then 24 h normoxia, triplicates
Protocol: Cells were cultured with or without β-gB1 and its S-alkylated β-gB1, first under the hypoxic condition for 24 h and then at a normal oxygen environment for another 24 h. The cell viability under hypoxia-reoxygenation condition was assessed by the MTT assay.
Rat cardio-myoblast cells (H9c2) and […] neuron-like SH-SY5Y cells were purchased from ATCC and maintained in DMEM (Dulbecco’s modified eagle medium) medium supplemented with 10% fetal bovine serum (FBS), 10,000 U/mL of penicillin, and 10,000 µg/mL of streptomycin at 37 °C, 5% CO2.
Cells were seeded in a cell culture medium with/without β-gB1 and incubated at 37 °C, 5% CO2 overnight. The next day, the cells were locked inside a BD GasPak EZ anaerobe pouch system (BD Diagnostics, MD) and incubated at 37 °C for the next 48 h for the hypoxia condition. In addition, the cells were cultured under a normal oxygenated environment for the normoxic control. In hypoxia-reoxygenation experiments, the cells were incubated for 24 h in hypoxic conditions before being incubated for another 24 h under normoxia.
Phosphate-buffered saline (PBS) was used as a vehicle control.

[2] = tested on: BHK (baby hamster kidney) cell line; conditions: MTT assay; cited from earlier work
From the text: (§1) In addition, β-gB1 is non-toxic to Vero and BHK (baby hamster kidney) cell lines based on an MTT assay. […] LDH is a cytoplasmic enzyme which is rapidly released int ...

Vero cell line = conditions: MTT assay; cited from earlier work
From the text: as §1

Candida albicans = conditions: concentrations up to 100 µM; cited from earlier work

CC[C@H](C)[C@@H]1NC(=O)[C@@H]2CSSC[C@H](NC(=O)CNC(=O)[C@@H](NC(=O)[C@H](CCC(=O)O)NC(=O)[C@@H](N)Cc3ccc(O)cc3)[C@@H](C)O)C(=O)N[C@@H](CCCCN)C(=O)N[C@@H](CCCNC(=N)N)C(=O)N[C@H]3CSSC[C@@H](C(=O)O)NC(=O)[C@H](CSSC[C@H](NC3=O)C(=O)N[C@@H](Cc3ccc(O)cc3)C(=O)N[C@@H](CC(C)C)C(=O)N[C@@H](CC(=O)O)C(=O)N[C@@H](CCC(=O)O)C(=O)N[C@@H](Cc3ccc(O)cc3)C(=O)NCC(=O)N2)NC(=O)[C@H](CCCNC(=N)N)NC1=O [β-gB1] (HELM PEPTIDE1{Y.E.T.G.C.K.R.C.C.Y.L.D.E.Y.G.C.I.R.C.C}$PEPTIDE1,PEPTIDE1,5:R3-16:R3|PEPTIDE1,PEPTIDE1,8:R3-20:R3|PEPTIDE1,PEPTIDE1,9:R3-19:R3$$$V2.0; N-terminus and C-terminus assumed)
remaining at 6 h [1]: ~90% | Antimicrobial effect (Candida tropicalis): does not exhibit an antimicrobial effect | Increase of cell survivability under hypoxia-reoxygenation (SH-SY5Y cells): 19% | Toxicity to cell line [2]: non-toxic | Toxicity to cell line (Vero cell line): non-toxic | Antimicrobial effect (Candida albicans): does not exhibit an antimicrobial effect
